Laboratory results as given in patent US4387104A, “N-Substituted pyruvic acid hydrazones, preparation thereof and pharmaceutical compositions containing them” (Boehringer Mannheim GmbH, priority 1980, dated 1983).

Experiments:
[1] = tested on: fasting glycemia (blood-glucose concentration); assay: threshold dose of blood-sugar-lowering activity in fasting guinea pigs; format: in vivo; conditions: Cavia porcellus, ip; guinea pig, i.p., potassium salt, pH 7.4; significant lowering of fasting glycemia (p<0.05), N=4 per dose group
Description: (§1) To establish the pharmacological properties of the compounds in accordance with the invention, blood-sugar-lowering activity and resorption inhibition were determined in separate tests and compared with two structurally related compounds.
Fasting guinea pigs were used as experimental model to determine the threshold dose of the blood-lowering activity of the substances to be investigated. Food was withheld from the individual animals used in the investigation for 16 hours prior to the start of the tests. The animals were kept unfed throughout the testing period but had free access to drinking water.
The substances were administered through intraperitoneal injection of a solution of the potassium salt at pH 7.4.
A control group carried along in parallel was given an 0.9% NaCl solution.
The drawing of blood for determination of the glucose concentrations was effected immediately prior to administration of the substances and at one-hour intervals up to the fourth hour after the administration of the substances. To this end, an ear vein was carefully punctured with a No. 18 cannula, and the drops of blood issuing were picked up with a 10 μl capillary.
The blood-glucose concentration was determined in the hemolysate by the specific hexokinase method. To this end, the 10 μl blood sample was pipetted into a stabilizer solution containing digitonin as hemolysis accelerator and maleinimide as glycolysis inhibitor. Following this, an aliquot was taken from the hemolysate so obtained and determined by the hexokinase method on an LKB 8600 (made by LKB, Bromma, Sweden).
The dose which with the specified number of test animals per dose group (N=4) was just large enough to produce a significant lowering of fasting glycemia (p<0.05) was adopted as threshold dose.

glucose resorption = assay: resorption-inhibiting activity (oral glucose loading) in fasting guinea pigs; format: in vivo; conditions: Cavia porcellus, PIG1, ip, guinea pig, 1 g glucose p.o., AUC difference vs control; for inhibition in vivo at 40 mg/kg: dose 40 mg/kg i.p.; for inhibition in vivo at 20 mg/kg: dose 20 mg/kg i.p.; for inhibition in vivo at 10 mg/kg: dose 10 mg/kg i.p.
Description: as §1
To determine the effect on glucose resorption, oral glucose loading was effected. To this end, the substance to be tested was administered intraperitoneally as potassium salt, as described, to a group of ten fasting guinea pigs. At the same time, 1 g glucose was orally administered to the animals as a 20% solution by means of an esophageal bougie.
After a preliminary value has been established, up to […] blood was taken from the animals at close (20-minute) intervals for determination of the glucose concentrations, as described.
A control group carried along in parallel also was given 1 g glucose p.o., and intraperitoneally a corresponding amount of 0.9% NaCl solution.
The blood-glucose concentration was determined in the hemolysate by the hexokinase method, as described.
With regard to glucose resorption, the area under the concentration/time curve, calculated by means of the empirical trapeze formula, served as quantity to be measured. The difference in the area between the control and test groups, expressed in percent, was used as a measure for the inhibition of glucose resorption.

Row | Compound | minimal effective dose [1] [mg/kg] | inhibition in vivo at 40 mg/kg (glucose resorption) [%] | inhibition in vivo at 20 mg/kg (glucose resorption) [%] | inhibition in vivo at 10 mg/kg (glucose resorption) [%] | inhibition in vivo at 15 mg/kg (glucose resorption; dose 15 mg/kg i.p.) [%]
1 | CC(=NNCCOCc1ccccc1)C(=O)[O-].[Na+] [Example 2b, sodium 2-(2-benzyloxyethylhydrazono)-propionate] | > 50 | 49.9 | – | – | –
2 | CC(=NNCCOc1ccccc1)C(=O)O [Example 1b, 2-(2-phenoxyethylhydrazono)-propionic acid] | 25 | 98 | – | – | –
3 | COCCOCCNN=C(C)C(=O)[O-].[Na+] [Example 2a, sodium 2-[2-(2-methoxyethoxy)-ethylhydrazono]-propionate] | > 50 | 37 | – | – | –
4 | CCOCCCCCNN=C(C)C(=O)O [Example 3b, 2-(5-ethoxypentylhydrazono)-propionic acid] | 20 to 25 | – | 34 | – | –
5 | COCCSCCNN=C(C)C(=O)O [Example 3f, 2-[2-(2-methoxyethylthio)-ethylhydrazono]-propionic acid] | 25 | – | 17.3 | – | –
6 | CC(=NNCCSc1ccccc1)C(=O)[O-].[Na+] [Example 2d, sodium 2-(2-phenylthioethylhydrazono)-propionate] | 25 to 50 | 33 | – | – | –
7 | COCCCCCCNN=C(C)C(=O)O [Example 3a, 2-(6-methoxyhexylhydrazono)-propionic acid] | 20 | – | 11 | – | –
8 | CC(=NNCCOCCC1CCCCC1)C(=O)O [Example 3d, 2-[2-(2-cyclohexylethoxy)-ethylhydrazono]-propionic acid] | > 50 | 15 | – | – | –
9 | CC(=NNCCc1ccccc1)C(=O)O [A, 2-(phenethylhydrazono)-propionic acid, reference compound] | 10 to 15 | – | – | 0 | –
10 | CC(=NNCCCOCc1ccccc1)C(=O)O [Example 3e, 2-(3-benzyloxypropylhydrazono)-propionic acid] | > 50 | 44 | – | – | –
11 | CC(=NNCCOc1ccc(C)cc1)C(=O)O [Example 1, 2-(2-p-Tolyloxyethylhydrazono)-propionic acid] | 25 | 25 | – | – | –
12 | C=CCSCCNN=C(C)C(=O)[O-].[Na+] [Example 2c, sodium 2-(2-allylthioethylhydrazono)-propionate] | 10 to 25 | – | – | 16 | –
13 | C=CCOCCNN=C(C)C(=O)O [Example 3, 2-(2-Allyloxyethylhydrazono)-propionic acid] | 25 | – | 9 | – | –
14 | CC(=NNCCC1CCCCC1)C(=O)O [B, 2-(2-cyclohexylethylhydrazono)-propionic acid, reference compound] | 15 | – | – | – | 0
